# Data from patent US9855203B2, “Preserving personal care compositions” (The Procter & Gamble Company, priority 2013, dated 2018).
# Experiment: Log water solubility of preservatives
# Details: logarithm base 10 of molar solubility at 25° C.; from experimental solubility or Chemsilico CS log WSo-3.0
row,Structure (SMILES),Log (water Solubility in mol/L) [mol/L]
1,O=C(O)c1ccccc1O [Salicylic acid],−1.41
2,C=CCCCCCCCCC(=O)O [Undecylenic Acid],−3.15
3,OCc1ccccc1 [benzyl Alcohol],−0.47
4,CCCCCCC(O)CO (stereo not shown) [caprylyl glycol],−3.08
5,CCOC(=O)c1ccc(O)cc1 [ethyl paraben],−1.91
6,OCCc1ccccc1 [phenethyl alcohol],−0.83
7,C/C=C/C=C/C(=O)O [sorbic acid],−0.33
